According to article PMC9738913 (2022):

Test system: d(GC)9 duplex (d(GC)9d(GC)9) (DNA, duplex) GCGCGCGCGCGCGCGCGC
Assay: fluorescence quenching and UV-vis absorption red shift
Details: 100 mM NaCl, 50 mM sodium phosphate; PBS pH 7.4, room temperature; 5 μM proflavine, 2.5 μM DNA; intercalation

SMILES: Nc1ccc2cc3ccc(N)cc3nc2c1
- binding: yes
